Measurements: patent US11986452B2, “Methods of reducing the risk of heart failure” (Amarin Pharmaceuticals Ireland Limited, priority 2021, dated 2024)

System: TG, non-HDL-C, LDL-C, HDL-C, Apo B, hsCRP
Assay: REDUCE-IT fasting lipid profile and biomarker assays over time
Format: in vivo, human
Conditions: for Apo B between group difference vs placebo, median % change from baseline / Apo B between group difference vs placebo, median absolute change from baseline / HDL-C between group difference vs placebo, median % change from baseline / HDL-C between group difference vs placebo, median absolute change from baseline / LDL-C Hopkins between group difference vs placebo, median % change from baseline / LDL-C Hopkins between group difference vs placebo, median absolute change from baseline / LDL-C derived between group difference vs placebo, median % change from baseline / LDL-C derived between group difference vs placebo, median absolute change from baseline / Log hsCRP between group difference vs placebo, median absolute change from baseline / Non-HDL-C between group difference vs placebo, median % change from baseline / Non-HDL-C between group difference vs placebo, median absolute change from baseline / Triglycerides between group difference vs placebo, median absolute change from baseline / hsCRP between group difference vs placebo, median absolute change from baseline: ITT
Method: Fasting Lipid Profile: The fasting lipid panel included: TG, TC, LDL-C, HDL-C, non-HDL-C, and VLDL-C. At all visits, LDL-C was calculated using the Friedewald equation. At Visit 1 and Visit 1.1 direct LDL-C were used if at the same visit TG>400 mg/dL (4.52 mmol/L). These LDL-C values were used for the evaluation of the LDL-C inclusion criterion (LDL-C qualifying measurements for randomization) and for the assessment of changes in the statin therapy when LDL-C was not at goal. […] In addition, irrespective of the TG levels, at Visit 2 (0 Months of Follow-up, baseline) and at Visit 4 (12 Months of Follow-up), LDL-C were measured by preparative ultracentrifugation. These preparative ultracentrifugation LDL-C measurements were used in the statistical analysis including the calculation of the percent change from baseline (1 year versus baseline). Hopkins LDL-C was calculated for each visit.
Biomarkers Assays: The biomarker assays included: hsCRP, Apo B and hsTnT.
The fasting lipid panel was tested at Screening (Visit 1 or Visit 1.1), Randomization visit (Visit 2; Day 0), Visit 3 (Day 120; ˜4 Months) and all other follow-up visits including the last visit. For change from baseline to 1 year preparative ultracentrifugation measurements for LDL-C were analyzed, unless this value was missing. If the LDL-C preparative ultracentrifugation values were missing, then another LDL-C value was used, with prioritization of values obtained from LDL-C Direct measurements, followed by LDL-C derived by the Friedewald calculation (only for subjects with TG<400 mg/dL), and finally LDL-C derived using the calculation published by Hopkins University investigators (Martin S S, Blaha M J, Elshazly M B, et al. Comparison of a novel method vs the Friedewald equation for estimating low-density lipoprotein cholesterol levels from the standard lipid profile. JAMA. 2013; 310:2061-8.). In addition, change from baseline to day 120 in LDL-C utilizing Friedewald's and Hopkins methods was analyzed, using the arithmetic mean of LDL-C obtained at Visit 2 (Day 0) and the preceding Visit 1 (or Visit 1.1). If one of these values was missing, the single available LDL-C value was used. LDL-C according to Hopkins was calculated at each visit.
The randomization visit was considered Baseline. If a baseline value was not available from the randomization visit, then the latest screening value was used. For measurements of lipids, lipoproteins and inflammatory markers, the change and the percent change were summarized at each visit. Since these biomarkers are typically not normally distributed, the Wilcoxon rank-sum test was used for treatment comparisons of the percent change from baseline, and medians and quartiles were provided for each treatment group. The medians of the differences between the treatment groups and 95% CIs were estimated with the Hodges-Lehmann method. In addition, shift-tables were generated as appropriate.

For CC/C=C\C/C=C\C/C=C\C/C=C\C/C=C\CCCC(=O)OCC [icosapent ethyl, eicosapentaenoic acid ethyl ester], which “Apo B between group difference vs placebo, median % change from baseline” value (Last Visit) is on record?
The value was −6.7%.

And the “Apo B between group difference vs placebo, median absolute change from baseline” value (Last Visit)?
The value was -5.0 mg/dL.

What about the “HDL-C between group difference vs placebo, median % change from baseline” value (Last Visit) of the same compound?
The value was −3.0%.

And the “HDL-C between group difference vs placebo, median absolute change from baseline” value (Last Visit)?
Its value is -1.0 mg/dL.

What about the “LDL-C Hopkins between group difference vs placebo, median % change from baseline” value (Last Visit) of the same compound?
Its value is −7.4%.

And the “LDL-C Hopkins between group difference vs placebo, median absolute change from baseline” value (Last Visit)?
The value was -6.2 mg/dL.

What about the “LDL-C derived between group difference vs placebo, median % change from baseline” value (Last Visit) of the same compound?
Its value is −6.6%.

And the “LDL-C derived between group difference vs placebo, median absolute change from baseline” value (Last Visit)?
Its value is -5.0 mg/dL.

What about the “Log hsCRP between group difference vs placebo, median absolute change from baseline” value (Last Visit) of the same compound?
Its value is −0.4 mg/L.

What about the “Non-HDL-C between group difference vs placebo, median % change from baseline” value (Last Visit) of the same compound?
The value was −8.6%.

What about the “Non-HDL-C between group difference vs placebo, median absolute change from baseline” value (Last Visit) of the same compound?
The value was -10.0 mg/dL.

And the “Triglycerides between group difference vs placebo, median absolute change from baseline” value (Last Visit)?
The value was -32.0 mg/dL.

What about the “hsCRP between group difference vs placebo, median absolute change from baseline” value (Last Visit) of the same compound?
The value was -0.8 mg/L.

What about the “HDL-C between group difference vs placebo, median % change from baseline” value (Month 4) of the same compound?
Its value is −7.2%.

What about the “HDL-C between group difference vs placebo, median absolute change from baseline” value (Month 4) of the same compound?
The value was -3.0 mg/dL.

What about the “LDL-C Hopkins between group difference vs placebo, median absolute change from baseline” value (Month 4) of the same compound?
The value was -8.7 mg/dL.

And the “Apo B median value” (Year 1 (Table 18))?
The value was 80.0 mg/dL.

And the hsCRP median value (Year 1 (Table 18))?
Its hsCRP median value is 1.8 mg/L.

And the “HDL-C between group difference vs placebo, median % change from baseline” value (Year 1)?
Its value is −6.3%.

And the “HDL-C between group difference vs placebo, median absolute change from baseline” value (Year 1)?
Its value is -2.5 mg/dL.

What about the “LDL-C Hopkins between group difference vs placebo, median absolute change from baseline” value (Year 1) of the same compound?
The value was -9.6 mg/dL.

What about the “LDL-C derived between group difference vs placebo, median % change from baseline” value (Year 1) of the same compound?
The value was −6.6%.

And the “LDL-C derived between group difference vs placebo, median absolute change from baseline” value (Year 1)?
The value was -5.0 mg/dL.

What about the “Apo B between group difference vs placebo, median % change from baseline” value (Year 2) of the same compound?
The value was −9.7%.

And the “Apo B between group difference vs placebo, median absolute change from baseline” value (Year 2)?
Its value is -8.0 mg/dL.

And the “HDL-C between group difference vs placebo, median % change from baseline” value (Year 2)?
Its value is −4.6%.

What about the “HDL-C between group difference vs placebo, median absolute change from baseline” value (Year 2) of the same compound?
Its value is -2.0 mg/dL.

What about the “LDL-C Hopkins between group difference vs placebo, median absolute change from baseline” value (Year 2) of the same compound?
The value was -9.4 mg/dL.

And the “Log hsCRP between group difference vs placebo, median absolute change from baseline” value (Year 2)?
The value was −0.4 mg/L.

What about the “hsCRP between group difference vs placebo, median absolute change from baseline” value (Year 2) of the same compound?
Its value is -0.9 mg/L.

What about the “HDL-C between group difference vs placebo, median % change from baseline” value (Year 3) of the same compound?
The value was −3.8%.

What about the “HDL-C between group difference vs placebo, median absolute change from baseline” value (Year 3) of the same compound?
Its value is -1.5 mg/dL.

What about the “LDL-C Hopkins between group difference vs placebo, median absolute change from baseline” value (Year 3) of the same compound?
The value was -8.7 mg/dL.

What about the “HDL-C between group difference vs placebo, median % change from baseline” value (Year 4) of the same compound?
Its value is −3.9%.

What about the “HDL-C between group difference vs placebo, median absolute change from baseline” value (Year 4) of the same compound?
The value was -1.5 mg/dL.

What about the “LDL-C Hopkins between group difference vs placebo, median absolute change from baseline” value (Year 4) of the same compound?
The value was -8.9 mg/dL.

And the “Non-HDL-C between group difference vs placebo, median % change from baseline” value (Year 4)?
The value was −12.0%.

And the “Non-HDL-C between group difference vs placebo, median absolute change from baseline” value (Year 4)?
The value was -14.0 mg/dL.

And the “Triglycerides between group difference vs placebo, median absolute change from baseline” value (Year 4)?
Its value is -38.0 mg/dL.

And the “HDL-C between group difference vs placebo, median % change from baseline” value (Year 5)?
The value was −3.0%.

And the “HDL-C between group difference vs placebo, median absolute change from baseline” value (Year 5)?
Its value is -1.5 mg/dL.

What about the “LDL-C Hopkins between group difference vs placebo, median % change from baseline” value (Year 5) of the same compound?
The value was −8.0%.

And the “LDL-C Hopkins between group difference vs placebo, median absolute change from baseline” value (Year 5)?
The value was -6.6 mg/dL.

What about the “Non-HDL-C between group difference vs placebo, median % change from baseline” value (Year 5) of the same compound?
Its value is −9.9%.

What about the “Non-HDL-C between group difference vs placebo, median absolute change from baseline” value (Year 5) of the same compound?
The value was -11.0 mg/dL.

And the “Triglycerides: median reduction from baseline greater than in placebo group (Hodges-Lehmann)” value (baseline to one year)?
The value was 19.7%.
